{"source": "patent US11567074B2", "about": "“Methods for identifying proteins that bind ligands” (University of Pittsburgh—Of the Commonwealth System of …, priority 2016, dated 2023)", "key": {"β-actin": {"target": "T1, β-actin (Homo sapiens, UniProt P60709)", "T1 construct": "Lysates of A2780cis cells were prepared identically as DISRUPT experiments outlined above; endogenous in cells; host or cells: a2780cis cells, cleared lysate", "experiment": "Western blot thermal shift (CETSA) in a2780cis lysate, β-actin control", "assay_type": "binding", "conditions": "20 μM mdivi-1, a2780cis cytoplasmic lysate, control protein", "description": "(§1) Protein quantification by western blot was employed to confirm the relative abundance of DPP3 remaining in solution following treatment with mdivi-1, heating and centrifugation. Cytoplasmic lysates from a2780cis ovarian cancer cells were treated with 20 μM mdivi-1 of and heated to 44° C., 48° C., 52° C., 56° C., and 60° C., in singlicate; the western blot is shown in FIG. 9D. β-actin was used as a control blot to show an unchanging […] intensity as a function of temperature. […] DPP3 activity was measured using a polypeptide cleavage assay that measures a decrease in fluorescence due to the removal of an n-terminal bound fluorophore. Fluorescence was measured as a function of dose, as shown in FIG. 9E; the control and quench assays for the functional assay are shown in FIG. 9D.\n(§2) The lysate stock was placed on ice until thawed.\n(§3) Lysates of A2780cis cells were prepared identically as DISRUPT experiments outlined above. The soluble protein was separated on Tris-glycine gels (Invitrogen). The separated proteins were blotted onto a polyvinylidene difluoride (PVDF) membrane and non-specific binding was blocked overnight at 4° C. in phosphate-buffered saline containing 0.1% Tween 20 and 10% nonfat dry milk (blocking buffer). Membranes were incubated with primary antibodies, DPP3 (GeneTex), Drpl (BD Biosciences), and β-actin (Sigma-Aldrich), in blocking buffer overnight at 4° C. […]"}, "DPP3 [1]": {"target": "T2, DPP3 (Homo sapiens, UniProt Q9NY33)", "T2 sequence (Q9NY33 1-737)": "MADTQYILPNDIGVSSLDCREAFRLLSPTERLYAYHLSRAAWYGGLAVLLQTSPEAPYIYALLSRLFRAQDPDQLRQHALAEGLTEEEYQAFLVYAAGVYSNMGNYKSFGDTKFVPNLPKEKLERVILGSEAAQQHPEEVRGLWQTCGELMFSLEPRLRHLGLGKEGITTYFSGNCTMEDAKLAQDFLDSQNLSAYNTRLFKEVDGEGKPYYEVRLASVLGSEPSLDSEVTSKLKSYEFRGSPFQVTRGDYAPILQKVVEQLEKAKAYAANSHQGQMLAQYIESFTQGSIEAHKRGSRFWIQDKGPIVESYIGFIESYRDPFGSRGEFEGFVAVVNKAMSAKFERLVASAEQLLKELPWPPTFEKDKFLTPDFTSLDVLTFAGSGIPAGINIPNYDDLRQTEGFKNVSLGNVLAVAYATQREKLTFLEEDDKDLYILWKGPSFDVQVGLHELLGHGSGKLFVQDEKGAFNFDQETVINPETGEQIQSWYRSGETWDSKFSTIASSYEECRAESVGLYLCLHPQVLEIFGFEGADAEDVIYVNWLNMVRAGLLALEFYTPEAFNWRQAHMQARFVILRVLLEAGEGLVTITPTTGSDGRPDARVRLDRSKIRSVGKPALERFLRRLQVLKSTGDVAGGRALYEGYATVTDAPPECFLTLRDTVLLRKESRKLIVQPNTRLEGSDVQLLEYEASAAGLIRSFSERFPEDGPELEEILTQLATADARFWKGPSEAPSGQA", "experiment": "Western blot thermal shift (CETSA) in a2780cis lysate, DPP3", "assay_type": "binding", "parameters": "endogenous in cells; host or cells: a2780cis cells (Sigma Aldrich), cleared freeze-thaw lysate", "conditions": "20 μM mdivi-1, a2780cis cytoplasmic lysate, 44-60° C., vs vehicle", "description": "as §1, §2, §3"}, "[2]": {"test_system": "tumor cells including cisplatin resistant ovarian cancers cells", "conditions": "wide range of tumor cells incl. cisplatin resistant ovarian cancer cells; cited from earlier work"}, "[3]": {"target": "T3, dipeptidyl peptidase 3 (DPP3) (Homo sapiens, UniProt Q9NY33)", "T3 construct": "endogenous in cells; host or cells: a2780cis cells (Sigma Aldrich), cleared freeze-thaw lysate", "T3 sequence (Q9NY33 1-737)": "T2 sequence (Q9NY33 1-737)", "experiment": "DISRUPT label-free differential mass spectrometry, a2780cis lysate", "assay_type": "binding", "conditions": "20 μM mdivi-1, a2780cis lysate, 56° C. for ten minutes, n=6 per condition", "description": "Equal aliquots of a2780cis cells were treated with 20 μM mdivi-1 and DMSO respectively, split into six technical replicates per condition, and heated to 56° C. for ten minutes to stimulate differential agglutination of drug-bound and unbound proteins. […] Data-dependent MS/MS data was analyzed and results in the identification of 35,369 features linked to 5488 unique peptides sequences that were associated with 947 proteins. Features […] having non-zero intensity values in at least four of six samples per condition were selected, and a Student's t-test was applied to compute a p value for each feature, and a volcano plot was created to show the distribution of features as a function of fold change and significance, as shown in the volcano plot in FIG. 7A. Two of the significant features were identified as peptide […] (SEQ ID NO: 2) deriving from dipeptidyl peptidase 3, DPP3, using MS/MS spectra acquired during the initial dMS experiment. The 6 remaining highly significant features were identified as peptides […] (SEQ ID NO: 6), […] (SEQ ID NO: 4), and […] (SEQ ID NO: 1) that are specific to the protein sequence for DPP3, using MS/MS spectra acquired in subsequent analyses.\nas §2\nSamples were denatured and digested utilizing the FASP method described by Wisniewski et al. (2009) and Manza et al. (2005). […]"}, "DRP1": {"target": "T4, DRP1 (Homo sapiens, UniProt O00429)", "T4 construct": "Lysates of A2780cis cells were prepared identically as DISRUPT experiments outlined above; endogenous in cells; host or cells: a2780cis cells, cleared lysate", "T4 sequence (O00429 whole entry)": "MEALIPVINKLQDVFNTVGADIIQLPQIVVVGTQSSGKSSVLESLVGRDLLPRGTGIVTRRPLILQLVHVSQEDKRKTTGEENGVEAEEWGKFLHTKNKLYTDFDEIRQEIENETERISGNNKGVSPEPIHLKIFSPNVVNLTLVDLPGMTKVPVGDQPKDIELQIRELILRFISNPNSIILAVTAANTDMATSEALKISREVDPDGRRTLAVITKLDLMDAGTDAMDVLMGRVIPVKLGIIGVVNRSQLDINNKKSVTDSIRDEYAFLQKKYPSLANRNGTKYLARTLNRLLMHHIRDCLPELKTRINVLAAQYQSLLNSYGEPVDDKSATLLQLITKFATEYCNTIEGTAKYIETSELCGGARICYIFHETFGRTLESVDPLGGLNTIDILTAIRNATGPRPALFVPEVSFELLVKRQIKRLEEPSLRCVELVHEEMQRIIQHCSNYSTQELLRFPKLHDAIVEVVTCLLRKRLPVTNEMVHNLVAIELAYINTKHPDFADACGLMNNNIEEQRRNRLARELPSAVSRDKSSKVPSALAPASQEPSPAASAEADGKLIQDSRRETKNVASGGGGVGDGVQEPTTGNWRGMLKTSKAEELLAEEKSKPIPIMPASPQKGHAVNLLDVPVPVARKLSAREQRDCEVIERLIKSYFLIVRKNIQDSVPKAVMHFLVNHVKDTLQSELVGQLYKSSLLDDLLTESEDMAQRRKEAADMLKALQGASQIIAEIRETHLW", "experiment": "Western blot thermal shift (CETSA) in a2780cis lysate, DRP1", "assay_type": "binding", "conditions": "20 μM mdivi-1, a2780cis cytoplasmic lysate, 44-60° C., vs vehicle", "description": "as §1, §2, §3"}, "DPP3 [4]": {"target": "T2, DPP3", "experiment": "DPP3 activity assay (fluorogenic polypeptide cleavage)", "assay_type": "biochemical", "parameters": "purchased BPS Bioscience 80203", "conditions": "IC50 upon DPP3 activity, purified recombinant DPP3, substrate Arg2-AMC, fluorescence as a function of dose", "description": "as §1\nThe inhibition of DPP3 peptidase activity by mdivi-1 was evaluated using a commercially available fluorogenic DPP3 Assay Kit (catalog number 80203, BPS Bioscience, San Diego Calif.) that contains purified recombinant DPP3 protein and DPP3 substrate Arg2-AMC. The fluorescence intensity was measured using a microplate reader, Synergy 2 (BioTek instruments)."}, "[5]": {"target": "T5, Huntingtin-interacting protein K, HYPK (Homo sapiens, UniProt Q9NX55)", "T5 construct": "endogenous in cells; host or cells: K562 cells (ATCC), cleared lysate in kinase buffer", "T5 sequence (Q9NX55 1-121)": "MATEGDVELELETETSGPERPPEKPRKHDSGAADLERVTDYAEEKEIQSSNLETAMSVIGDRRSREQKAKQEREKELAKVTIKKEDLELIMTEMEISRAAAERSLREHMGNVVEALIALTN", "experiment": "DISRUPT label-free differential mass spectrometry, K562 lysate, HYPK", "assay_type": "binding", "conditions": "2 μM staurosporine, 56° C. for ten minutes, n=10 per condition", "method": "Samples were heated to 56° C. for ten minutes to stimulate protein agglutination (protein clumping) and agglutinated proteins were removed from solution by centrifugation at 20,000 g.\nTo measure the relative abundance of proteins in solution, lysates were subjected to tryptic digestion, desalting and quantitative proteomic analysis. Peptide samples were separated by reversed phase C18 nanoflow liquid chromatography (nLC), ionized by electrospray ionization, and analyzed with a hybrid ion trap/high-resolution Fourier transform mass spectrometer. […] To enhance the quantification of the vast number of molecular features present in high-resolution data, the acquisition of full-scan MS spectra were prioritized over the collection of MS/MS spectra that are used for peptide identification, resulting in approximately 10 quantitative measurements per chromatographic peak.\nSamples were analyzed in a balanced run order to compensate for drifts in mass spectrometry response that occurs as a function of time. Each sample was analyzed once and the resulting data file was uploaded to a cloud-based data analysis platform, CHORUS (www.chorusproject.org), that was developed to support the efficient analysis of high-resolution mass spectrometry data. Label-free differential mass spectrometry (dMS) was used to quantify hundreds of thousands of features detected by nLC-MS analysis. […]"}}, "note": "Several values for one entry are separate records, joined by “and”; a condition that tells them apart may be missing. Equal values may be shown once. Entries after “also recorded” stand apart in the source; their conditions may differ."}
{"compound": "COc1cc(-n2c(S)nc3ccccc3c2=O)c(Cl)cc1Cl", "note": "[mdivi-1]", "values": [{"measurement": "thermal shift of β-actin (western blot)", "setting": "β-actin", "result": "no shifts were observed"}, {"measurement": "thermal shift of DPP3 (protein remaining in solution, western blot)", "setting": "DPP3 [1]", "result": "remained in solution at 52 °C and 56 °C at higher levels compared to vehicle treated controls; also recorded: a strong shift was seen for DPP3"}, {"measurement": "killing of tumor cells", "setting": "[2]", "result": "robust killing"}, {"measurement": "DISRUPT ranking / significant features of DPP3", "setting": "[3]", "result": "eight DPP3 peptides from 18 features were significant; also recorded: top putative target"}, {"measurement": "thermal shift of DRP1 (western blot)", "setting": "DRP1", "result": "no evidence of a thermal shift; also recorded: no shifts were observed"}, {"measurement": "IC50", "setting": "DPP3 [4]", "result": "~0.07 µM and 0.07 µM"}]}
{"compound": "CN[C@@H]1C[C@H]2O[C@@](C)([C@@H]1OC)n1c3ccccc3c3c4c(c5c6ccccc6n2c5c31)C(=O)NC4", "note": "[staurosporine]", "values": [{"measurement": "peptides identified among the 15 highly significant features (p<0.0001), HYPK", "setting": "[5]", "result": "one peptide"}]}
